Results on seven compounds are retold here after paper PMC7795425, “Synthesis and Biological Activity of Brassinosteroid Analogues with a Nitrogen-Containing Side Chain” (International Journal of Molecular Sciences, 2020).

“Also recorded” adds a separate entry of the source.

For data set [1], the system named is T-lymphoblastic leukemia CEM. Set-up: method as in PMID 17869317. Conditions: CEM cells; positive control; cited from earlier work.
Data set [2] deals with Arabidopsis thaliana L. (Columbia ecotype, Col-0) seedlings. Description: Arabidopsis root sensitivity bioassay. The class given is in vivo. Conditions: for root length, mean: 7-day-old seedlings; for elongation of roots (growth-promoting activity) compared to the control: low concentrations (0.1 and 1 nM); for inhibitory effect on Arabidopsis root growth: tested 0.1 to 10 nM, selected derivatives also 100 nM.

Data set [3] is described as follows: Calcein AM cytotoxicity assay, CEM. It is filed as cell-based. The conditions noted are these: human, CEM T-lymphoblastic leukemia cells, IC50 > 50 µM means inactive, read-out: Cytotoxic activity IC50.
Data set [4] can be described thus: Calcein AM cytotoxicity assay, MCF7. It is filed as cell-based. The conditions noted are these: human, MCF7 breast carcinoma cells (estrogen-sensitive), MCF7, 72 h, IC50 > 50 µM means inactive, read-out: Cytotoxic activity IC50.
The nature of data set [5]: Calcein AM cytotoxicity assay, HeLa. It is filed as cell-based. The conditions noted are these: human, HeLa cervical carcinoma cells, IC50 > 50 µM means inactive, read-out: Cytotoxic activity IC50.
Data set [6] can be described thus: Calcein AM cytotoxicity assay, BJ. The conditions noted are these: human, BJ foreskin fibroblasts (normal cell line), IC50 > 50 µM means inactive, read-out: Cytotoxic activity IC50. It is filed as cell-based.
In data set [7] the test system is rice leaf lamina. Set-up: method as in PMID 11674612. The conditions noted are these: all doses studied; cited from earlier work.
Where [8] appears, read: 100 nM (only selected compounds), control 14.61 ± 0.85.

Take `CCC(C(C)C)C(O)C(O)C(C)C1CCC2C3CC(=O)C4CC(O)C(O)CC4(C)C3CCC12C` (stereo not drawn) [28-Homocastasterone]: the IC50 in data set [1] was 13 µM.
For `C[C@H]([C@@H](O)[C@@H](O)CN1CCCCC1)[C@H]1CC[C@H]2[C@@H]3CC(=O)[C@H]4C[C@H](O)[C@H](O)C[C@]4(C)[C@H]3CC[C@]12C.Cl` [22d, 1-((20S,22R,23S)-2α,3α,22,23-tetrahydroxy-6-oxo-5α-cholan-24-yl)piperidinium chloride], the melting point is > 250 °C (dec.). The “root length, mean” value in data set [2] (0.1 nM, control 16.3 ± 1.21) is given as 15.48 mm. Also, the “root length, mean” value in data set [2] (1 nM, control 16.3 ± 1.21) amounted to 15.97 mm. For the same compound, the “root length, mean” value in data set [2] (10 nM, control 16.3 ± 1.21) is reported as 16.62 mm. Besides, the IC50 at 72 h in data set [3] was greater than 50 µM. Also, the IC50 at 72 h in data set [4] was greater than 50 µM. In data set [5], the IC50 at 72 h was greater than 50 µM. Further, the IC50 at 72 h in data set [6] is greater than 50 µM.
Take 25-azabrassinolide: the “biological activity in rice lamina inclination” value in data set [7] was “completely inactive; also recorded: no biological activity”.
In the case of `C[C@H](C(=O)N1CCOCC1)[C@H]1CC[C@H]2[C@@H]3CC(=O)[C@H]4C[C@H](O)[C@H](O)C[C@]4(C)[C@H]3CC[C@]12C` [8e, 4-((20S)-2α,3α-dihydroxy-6-oxo-5α-pregnane-20-carbonyl)morpholine], the melting point is > 270 °C (dec.). In addition, the “root length, mean” value in data set [2] (0.1 nM, control 16.3 ± 1.21) was 17.77 mm. The “root length, mean” value in data set [2] (1 nM, control 16.3 ± 1.21) worked out at 17.44 mm. In addition, the “root length, mean” value in data set [2] (10 nM, control 16.3 ± 1.21) was 15.16 mm. For the same compound, the “elongation of roots (growth-promoting activity) compared to the control” value in data set [2] is “slight elongation of roots; also recorded: interesting growth-promoting activity”. Moreover, in data set [3], the IC50 at 72 h is greater than 50 µM. The IC50 at 72 h in data set [4] is greater than 50 µM. In data set [5], the IC50 at 72 h is greater than 50 µM. The IC50 at 72 h in data set [6] is greater than 50 µM.
For `CCN(CC)C(=O)[C@@H](O)[C@H](O)[C@@H](C)[C@H]1CC[C@H]2[C@@H]3CC(=O)[C@H]4C[C@H](O)[C@H](O)C[C@]4(C)[C@H]3CC[C@]12C` [20b, N,N-diethyl-(20S,22R,23S)-2α,3α,22,23-tetrahydroxy-6-oxo-5α-cholan-24-amide], the melting point is > 160 °C (dec.). Further, the “root length, mean” value in data set [2] (0.1 nM, control 16.3 ± 1.21) came out at 16.78 mm. The “root length, mean” value in data set [2] (1 nM, control 16.3 ± 1.21) is 15.32 mm. Also, the “root length, mean” value in data set [2] (10 nM, control 16.3 ± 1.21) was determined as 14.99 mm. Besides, the IC50 at 72 h in data set [3] was greater than 50 µM. For the same compound, the IC50 at 72 h in data set [4] was greater than 50 µM. Further, the IC50 at 72 h in data set [5] was greater than 50 µM. In addition, in data set [6], the IC50 at 72 h is greater than 50 µM.
For `C[C@H](C(=O)N(C)C)[C@H]1CC[C@H]2[C@@H]3CC(=O)[C@H]4C[C@H](O)[C@H](O)C[C@]4(C)[C@H]3CC[C@]12C` [8a, N,N-dimethyl-(20S)-2α,3α-dihydroxy-6-oxo-5α-pregnane-20-carboxamide], the melting point was > 230 °C (dec.). The “root length, mean” value in data set [2] (0.1 nM, control 16.3 ± 1.21) worked out at 16.12 mm. In addition, the “root length, mean” value in data set [2] (1 nM, control 16.3 ± 1.21) is reported as 18.41 mm. In addition, the “root length, mean” value in data set [2] (10 nM, control 16.3 ± 1.21) worked out at 16.46 mm. The “root length, mean” value in data set [2] (setting [8]) stood at 13.329 mm. Also, in data set [2], the “elongation of roots (growth-promoting activity) compared to the control” value is “slight elongation of roots; also recorded: interesting growth-promoting activity” and the “inhibitory effect on Arabidopsis root growth” value is reported as “weak inhibition up to the highest tested concentration of 100 nM”. For the same compound, in data set [3], the IC50 at 72 h was greater than 50 µM. Also, in data set [4], the IC50 at 72 h was greater than 50 µM. For the same compound, the IC50 at 72 h in data set [5] is greater than 50 µM. Besides, the IC50 at 72 h in data set [6] is greater than 50 µM.
As to `C[C@H]([C@@H](O)[C@H](O)C(=O)N1CCCC1)[C@H]1CC[C@H]2[C@@H]3CC(=O)[C@H]4C[C@H](O)[C@H](O)C[C@]4(C)[C@H]3CC[C@]12C` [20c, 1-((20S,22R,23S)-2α,3α,22,23-tetrahydroxy-6-oxo-5α-cholan-24-oyl)pyrrolidine], the melting point was > 200 °C (dec.). Further, in data set [2] (0.1 nM, control 16.3 ± 1.21), the “root length, mean” value is recorded as 15.97 mm. The “root length, mean” value in data set [2] (1 nM, control 16.3 ± 1.21) is 15.81 mm. In addition, the “root length, mean” value in data set [2] (10 nM, control 16.3 ± 1.21) was 15.15 mm. Besides, in data set [2] (setting [8]), the “root length, mean” value came to 14.873 mm. Also, the “inhibitory effect on Arabidopsis root growth” value in data set [2] was “weak inhibitory effect”. Moreover, the IC50 at 72 h in data set [3] was greater than 50 µM. For the same compound, in data set [4], the IC50 at 72 h is greater than 50 µM. Moreover, the IC50 at 72 h in data set [5] was greater than 50 µM. Also, the IC50 at 72 h in data set [6] is greater than 50 µM.
